Reference: patent US6391917B1, “Dialkyl ureas as calcitonin mimetics” (ZymoGenetics, Inc., priority 1998, dated 2002)

How the values were obtained:
Type in all cases: cell-based
[1] = tested on: PTH-induced bone resorption in mouse calvariae; test: Calvarial assay: PTH-induced bone resorption, calcium release; settings: 1 nM PTH 1-34, 72 hours
Procedure: Calvaria from 4-day old neonatal CD-1 mice (pregnant mice received from Charles River Laboratories, Wilmington, Mass.) were trimmed with fine-tipped scissors to leave the parietal regions, including the sagittal suture. These trimmed bones were placed singly per well into 6-well cell culture cluster plates (Costar, Pleasanton, Calif.) with 1 ml/well of Dulbecco's […] Essential Medium, […] (DMEM, BioWhittaker, Walkersville, Md.) or Basal Eagle's Medium with Earle's salts (EMEM, Gibco/BRL, Grand Island, N.Y.) and 0.29 mg/ml L-glutamine, 1 mM sodium pyruvate, 15% heat-inactivated horse serum, and antibiotics (penicillin-G 50 μg/ml, streptomycin 50 μg/ml, and neomycin 100 μg/ml). Calvaria were rocked gently (RedRocker™, model PR50-115 V, Hoefer, San Francisco, Calif. or Labline Rocking Shaker, model 4635, Labline Instruments, Melrose Park, Ill.) at 37° C. in a 5% CO2 humidified incubator for 24 hours preincubation.
Following preincubation, medium was removed and replaced with 1.5 ml/well of growth medium containing 1 nM parathyroid hormone (PTH) 1-34 (Sigma) to stimulate bone resorption. For evaluation of the ability of calcitonin mimetics to inhibit PTH induced bone resorption, mimetic compounds in DMSO were added to the growth medium at concentrations ranging from 1-400 μg/ml (final assay concentration of DMSO less than or equal to 1%). In each experiment human calcitonin (0.02-2 nM, 0.2-2 nM preferred) was added to PTH treated bones as a positive control. […] All control wells contained a final assay concentration of DMSO equal to that present in calcitonin mimetic treated wells.
Five bones were included in each sample group. Bones were incubated for 72 hours following PTH addition to allow resorption of bone to occur. Observations were made of the general appearance, healthiness and number of cells. that migrate from the calvaria during the incubation as a possible indication of cell toxicity. Calvaria to be examined histologically were transferred to glass scintillation vials containing 10 ml of 10% neutral buffered formalin. […]

[2] = molecular target: T1, Human calcitonin receptor (Homo sapiens, UniProt P30988); test: CRE-luciferase assay for calcitonin mimetics (Hollex-1)
T1 construct: expressed in transfected cells; host or cells: BHK-570 (Hollex-1)
T1 sequence (P30988 25-474): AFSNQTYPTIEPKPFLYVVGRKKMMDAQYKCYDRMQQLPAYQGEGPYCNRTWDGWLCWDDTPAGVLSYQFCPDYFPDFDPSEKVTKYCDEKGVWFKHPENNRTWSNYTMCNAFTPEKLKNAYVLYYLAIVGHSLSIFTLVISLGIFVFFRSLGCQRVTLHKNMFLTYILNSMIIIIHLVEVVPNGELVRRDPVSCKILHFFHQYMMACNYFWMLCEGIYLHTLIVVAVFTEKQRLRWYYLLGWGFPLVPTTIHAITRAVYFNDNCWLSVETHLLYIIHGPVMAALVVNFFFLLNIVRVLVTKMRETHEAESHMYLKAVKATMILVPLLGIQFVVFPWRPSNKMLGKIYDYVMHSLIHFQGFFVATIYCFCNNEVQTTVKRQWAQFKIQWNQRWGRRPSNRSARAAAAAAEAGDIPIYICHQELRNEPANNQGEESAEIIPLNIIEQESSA
Procedure: CRE-Luciferase Assay Method for Calcitonin Mimetics
Human calcitonin receptor-positive and receptor-negative BHK-570 (Baby Hamster Kidney) cell lines were maintained by serial passage in growth medium (DMEM supplemented with 10% heat-inactivated fetal calf serum (HI-FCS), 2 mM L-glutamine, 1 mM sodium pyruvate, 250 nM MTX, and 1 mg/mL G418). On the day prior to assay, cells were trypsinized, adjusted to 2.5×10^5 cells/ml in growth medium, plated in opaque white Dynatech Microlite microtiter tissue culture plates at 50 μL/well, and grown overnight to confluence (37° C., 5% CO2 atmosphere).
Test substances were prepared in DMSO or 10% DMF at 100 times the final desired assay concentration. […] Controls were included on each plate: untreated wells (basal), […], and 100 nM human calcitonin. DMSO or DMF was included in control wells at a concentration equal to that in test samples (not to exceed a final assay concentration of 2% DMSO or 0.5% DMF, with a preferred maximum of 1% DMSO or 0.1% DMF).
Plates were incubated for 3 to 8 hours (4 hours preferred) at 37° C. in an atmosphere of 5% CO2. Following induction, luciferase activity was measured using a Promega luciferase assay kit (E1500) according to the assay kit protocol (Promega Corp., Madison, Wis.). Briefly, assay medium was removed and cells were washed once with phosphate buffered saline (PBS). After the wash, 25 μl of lysis buffer was added to each well, and the plates were incubated for 15 minutes at room temperature. Fifty microliters of Luciferase Assay Substrate (Promega, Corp.) was added to each well and the plates were transferred to a Labsystems Lumiscan microtiter luminometer (Labsystems Inc., Morton Grove, Ill.). The amount of luminescence (relative light units, RLU) was determined following a 0.1 second/well integration of signal. Basal (uninduced) luciferase signal was subtracted from all measurements, and the luciferase signal induced by test samples was expressed as a percentage of the signal in the calcitonin and forskolin controls. Specificity of the luciferase induction for calcitonin receptor-positive cell lines was determined by comparing the percent control values in the calcitonin receptor-positive line (Hollex-1) to those observed in the calcitonin receptor-negative cell line (KZ10-20-48/Zem 228) and the PTH receptor-positive cell line (KZ10-20-48/PTH-20) described below. Samples inducing a signal over the basal level were selected for further characterization, see Table 1 for examples.

[3] = tested on: osteoclasts in mouse calvariae; test: Calvaria histology (osteoclast number and size, toxicity); settings: for Histology (bone destruction by PTH, Oc size and #): mouse calvariae treated with PTH
Description: To confirm the findings in the calvarial bone resorption assay employing calcium release from culture mouse calvariae, selected bones were fixed in 10% neutral buffered formalin and demineralized in 5% formic acid with 5% formalin. The bones were dehydrated through an ascending series of ethanol concentrations, infiltrated in glycol methacrylate, and embedded using a JB-4 embedding kit (PolySciences, Warrington, Pa.) (Liu, et al., J. Bone Mineral Res. 5:973-82, 1990). When necessary, an alternative embedding method (paraffin embedding) was used to speed up the embedding process. Cross sections of calvariae cut at 5 μm were obtained and stained for tartrate-resistant acid phosphatase (TRAP) activity and counterstained with methyl green and thionin for cell morphology (Liu, et al., ibid.). Osteoclasts were identified by TRAP stain, multinucleation, large cell size, and irregular cell shape. The number of osteoclasts were counted from endocranial and ectocranial bone surfaces and expressed as number/mm perimeter. The size of all the osteoclasts counted was also measured using a Bone Morphometry program (Liu, et al., ibid.; Bain, et al., J. Bone Miner. Res. 8:435-42, 1993). […] This PTH-induced increase was suppressed by treatment with human calcitonin.
Calcitonin mimetic compounds were evaluated in a similar fashion for their ability to suppress PTH-induced increases in osteoclast number and size (Table 2). Cell toxicity (or death) was also evaluated by the appearance of pyknotic nuclei in a small number of bone cells. With an increased level of toxicity, a further increase in the number of these pyknotic nuclei, detachment of cells from bone surfaces, and losses of cytoplasmic stain and cell boundaries were observed. The osteocytic space also appeared empty.

human PTH receptor = molecular target: T2, human PTH receptor (Homo sapiens, UniProt Q03431); test: CRE-luciferase induction in clone KZ10-20-48/PTH-20
T2 construct: expressed in transfected cells; host or cells: BHK570 clone KZ10-20-48 (KZ10-20-48/PTH-20)
T2 sequence (Q03431 27-593): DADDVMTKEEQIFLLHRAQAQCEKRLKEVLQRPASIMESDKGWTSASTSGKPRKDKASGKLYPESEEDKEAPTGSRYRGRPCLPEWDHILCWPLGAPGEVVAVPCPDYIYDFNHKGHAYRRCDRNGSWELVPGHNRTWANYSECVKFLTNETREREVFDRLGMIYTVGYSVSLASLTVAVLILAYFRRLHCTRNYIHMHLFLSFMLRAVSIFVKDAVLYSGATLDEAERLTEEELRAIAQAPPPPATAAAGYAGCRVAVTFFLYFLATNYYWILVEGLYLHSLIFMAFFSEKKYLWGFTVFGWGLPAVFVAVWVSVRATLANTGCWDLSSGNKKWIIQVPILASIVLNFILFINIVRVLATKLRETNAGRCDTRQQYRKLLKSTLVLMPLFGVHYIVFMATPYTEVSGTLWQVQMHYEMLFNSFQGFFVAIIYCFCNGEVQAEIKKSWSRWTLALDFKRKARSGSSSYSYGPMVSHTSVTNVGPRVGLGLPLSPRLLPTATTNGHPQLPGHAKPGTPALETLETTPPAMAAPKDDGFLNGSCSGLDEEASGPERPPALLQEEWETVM
Description: Test substances that appear to specifically elevate luciferase expression in CT-R positive cells but not CT-R negative cells were subjected to an additional specificity check, i.e. their inability to activate other members of the G-protein coupled receptor family. The parathyroid hormone (PTH) receptor is another member of the G-protein coupled receptor family that transduces signal through adenylate cyclase mediated elevation of cAMP.

EC50 (human PTH receptor) [µM] | Compound | Release of PTH Induced Ca++ IC50 [1] [mg/L] | Luciferase induction (% of maximum luciferase induction produced by CT, 100 nM) ([2]; crude compound 6.25 μg/ml) [%] | Luciferase induction (% of maximum luciferase induction produced by CT, 100 nM) ([2]; crude compound 12.5 μg/ml) [%] | Luciferase induction (% of maximum luciferase induction produced by CT, 100 nM) ([2]; crude compound 25 μg/ml) [%] | Luciferase induction (% of maximum luciferase induction produced by CT, 100 nM) ([2]; crude compound 50 μg/ml) [%] | Histology (bone destruction by PTH, Oc size and #) [3] | PTH-induced increase in number and size of osteoclasts ([3]; mouse calvariae, PTH 1-34 treatment) | Luciferase induction (% of maximum luciferase induction produced by CT, 100 nM) ([2]; crude compound 3.125 μg/ml) [%]
 | CC(C)(C)c1ccc(C(C)(C)C)c(NC(=O)N[C@H](Cc2ccc3ccccc3c2)C(=O)NCc2ccc3ccccc3c2)c1 [628-055] | 14 | 24.81 | 35.48 | 43.3 | 48.69 | Decreases in bone |  | 
 | CC[C@H](C)[C@H](NC(=O)[C@H](C)NC(=O)[C@@H](NC(=O)[C@H](CCC(N)=O)NC(=O)[C@@H]1CCCN1C(=O)[C@H](Cc1ccccc1)NC(=O)[C@@H](NC(=O)[C@H](Cc1c[nH]cn1)NC(=O)[C@H](Cc1ccccc1)NC(=O)[C@H](CCCCN)NC(=O)[C@H](CC(N)=O)NC(=O)[C@H](Cc1ccccc1)NC(=O)[C@H](CC(=O)O)NC(=O)[C@H](CCC(N)=O)NC(=O)[C@@H](NC(=O)[C@H](Cc1ccc(O)cc1)NC(=O)[C@@H](NC(=O)CNC(=O)[C@H](CC(C)C)NC(=O)[C@H](CCSC)NC(=O)[C@@H]1CSSC[C@H](N)C(=O)NCC(=O)N[C@@H](CC(N)=O)C(=O)N[C@@H](CC(C)C)C(=O)N[C@@H](CO)C(=O)N[C@@H]([C@@H](C)O)C(=O)N1)[C@@H](C)O)[C@@H](C)O)[C@@H](C)O)[C@@H](C)O)C(=O)NCC(=O)N[C@H](C(=O)NCC(=O)N[C@@H](C)C(=O)N1CCC[C@H]1C(N)=O)C(C)C [human calcitonin, reference compound] |  |  |  |  |  |  | suppressed | 
2 | C=C[C@@]1(C)CC(=O)[C@]2(O)[C@@]3(C)[C@@H](O)CCC(C)(C)[C@@H]3[C@H](O)[C@H](OC(C)=O)[C@@]2(C)O1 [forskolin] |  |  |  |  |  |  |  | 
 | C=CCNC(=O)[C@@H](Cc1ccc(F)cc1)NC(=O)Nc1cc(C(C)(C)C)ccc1C(C)(C)C [628-033] | 30 | 14.71 | 27.68 | 31.63 | 33.62 | Decreases in bone |  | 
 | C=CCNC(=O)[C@@H](Cc1ccc2ccccc2c1)NC(=O)Nc1cc(C(C)(C)C)ccc1C(C)(C)C [628-035] | 23 | 34.84 | 43.25 | 46.43 | 52.27 | Decreases in bone |  | 
 | CC(C)(C)c1ccc(C(C)(C)C)c(NC(=O)N[C@H](Cc2ccc(Cl)cc2)C(=O)NCc2ccc3ccccc3c2)c1 [628-052] |  | 23.59 | 36.63 | 40.21 | 38.27 |  |  | 9.57
